Laboratory results: patent publication US20140348819A1, “Methods of Treating Cancer” (Dana-Farber Cancer Institute, Inc., priority 2011, published 2014)

Tested on: six V600E BRAF melanoma cell lines
Experiment: Screening of recombinant RTK ligands for ability to confer resistance to BRAFi (PLX4720) or MEKi (PD184352) (Table 4)
Type: cell-based, human
Parameters: ability of recombinant RTK ligand to confer resistance / ability of recombinant RTK ligand to confer resistance (screening value): scale not given here
In short: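 Resistance to BRAFi (PLX4720) or MEKi (PD184352) was tested in six V600E BRAF melanoma lines given one of 22 recombinant RTK ligands. For a subset of RTKs, activation was checked by high-throughput tyrosine kinase phosphorylation profiling and western blot.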

SCF was tested, and the “ability of recombinant RTK ligand to confer resistance” value (“ability of recombinant RTK ligand” below) (A2058, PD184352 - 1 uM, ligand 0.4 ng/ml) was 1.04, the “ability of recombinant RTK ligand” value (A2058, PD184352 - 1 uM, ligand 1.6 ng/ml) was 1.04 and the “ability of recombinant RTK ligand” value (A2058, PD184352 - 1 uM, ligand 6.25 ng/ml) was 1.13. The “ability of recombinant RTK ligand” value (A2058, PD184352 - 1 uM, ligand 25 ng/ml) was 1.12, the “ability of recombinant RTK ligand” value (A2058, PD184352 - 1 uM, ligand 100 ng/ml) was 1.09 and the “ability of recombinant RTK ligand” value (A2058, PLX4720 - 2 uM, ligand 0.4 ng/ml) was 1.04. The “ability of recombinant RTK ligand” value (A2058, PLX4720 - 2 uM, ligand 1.6 ng/ml) was 1.06, the “ability of recombinant RTK ligand” value (A2058, PLX4720 - 2 uM, ligand 6.25 ng/ml) was 1.07 and the “ability of recombinant RTK ligand” value (A2058, PLX4720 - 2 uM, ligand 25 ng/ml) was 1.13. For the same substance, the “ability of recombinant RTK ligand” value (A2058, PLX4720 - 2 uM, ligand 100 ng/ml) was 1.08, the “ability of recombinant RTK ligand” value (C32, PD184352 - 1 uM, ligand 0.4 ng/ml) was 1.02 and the “ability of recombinant RTK ligand” value (C32, PD184352 - 1 uM, ligand 1.6 ng/ml) was 1.05. For the same substance, the “ability of recombinant RTK ligand” value (C32, PD184352 - 1 uM, ligand 6.25 ng/ml) was 1.03, the “ability of recombinant RTK ligand” value (C32, PD184352 - 1 uM, ligand 25 ng/ml) was 1.04 and the “ability of recombinant RTK ligand” value (C32, PD184352 - 1 uM, ligand 100 ng/ml) was 0.98. For the same substance, the “ability of recombinant RTK ligand” value (C32, PLX4720 - 2 uM, ligand 0.4 ng/ml) was 1.05, the “ability of recombinant RTK ligand” value (C32, PLX4720 - 2 uM, ligand 1.6 ng/ml) was 0.94 and the “ability of recombinant RTK ligand” value (C32, PLX4720 - 2 uM, ligand 6.25 ng/ml) was 0.97. For the same substance, the “ability of recombinant RTK ligand” value (C32, PLX4720 - 2 uM, ligand 25 ng/ml) was 0.98, the “ability of recombinant RTK ligand” value (C32, PLX4720 - 2 uM, ligand 100 ng/ml) was 0.96 and the “ability of recombinant RTK ligand” value (Colo 829, PD184352 - 1 uM, ligand 0.4 ng/ml) was 1.00. For the same substance, the “ability of recombinant RTK ligand” value (Colo 829, PD184352 - 1 uM, ligand 1.6 ng/ml) was 1.08, the “ability of recombinant RTK ligand” value (Colo 829, PD184352 - 1 uM, ligand 6.25 ng/ml) was 1.15 and the “ability of recombinant RTK ligand” value (Colo 829, PD184352 - 1 uM, ligand 25 ng/ml) was 1.18. For the same substance, the “ability of recombinant RTK ligand” value (Colo 829, PD184352 - 1 uM, ligand 100 ng/ml) was 1.09, the “ability of recombinant RTK ligand” value (Colo 829, PLX4720 - 2 uM, ligand 0.4 ng/ml) was 0.96 and the “ability of recombinant RTK ligand” value (Colo 829, PLX4720 - 2 uM, ligand 1.6 ng/ml) was 1.01. For the same substance, the “ability of recombinant RTK ligand” value (Colo 829, PLX4720 - 2 uM, ligand 6.25 ng/ml) was 1.06, the “ability of recombinant RTK ligand” value (Colo 829, PLX4720 - 2 uM, ligand 25 ng/ml) was 1.10 and the “ability of recombinant RTK ligand” value (Colo 829, PLX4720 - 2 uM, ligand 100 ng/ml) was 1.04. The “ability of recombinant RTK ligand” value (G-361, PD184352 - 1 uM, ligand 0.4 ng/ml) was 1.06, the “ability of recombinant RTK ligand” value (G-361, PD184352 - 1 uM, ligand 1.6 ng/ml) was 0.99 and the “ability of recombinant RTK ligand” value (G-361, PD184352 - 1 uM, ligand 6.25 ng/ml) was 1.06. The “ability of recombinant RTK ligand” value (G-361, PD184352 - 1 uM, ligand 25 ng/ml) was 1.13, the “ability of recombinant RTK ligand” value (G-361, PD184352 - 1 uM, ligand 100 ng/ml) was 1.07 and the “ability of recombinant RTK ligand” value (G-361, PLX4720 - 2 uM, ligand 0.4 ng/ml) was 1.07. For the same substance, the “ability of recombinant RTK ligand” value (G-361, PLX4720 - 2 uM, ligand 1.6 ng/ml) was 1.03, the “ability of recombinant RTK ligand” value (G-361, PLX4720 - 2 uM, ligand 6.25 ng/ml) was 1.04 and the “ability of recombinant RTK ligand” value (G-361, PLX4720 - 2 uM, ligand 25 ng/ml) was 1.12. The “ability of recombinant RTK ligand” value (G-361, PLX4720 - 2 uM, ligand 100 ng/ml) was 1.07, the “ability of recombinant RTK ligand” value (SK-MEL-5, PD184352 - 1 uM, ligand 0.4 ng/ml) was 0.97 and the “ability of recombinant RTK ligand” value (SK-MEL-5, PD184352 - 1 uM, ligand 1.6 ng/ml) was 0.34. For the same substance, the “ability of recombinant RTK ligand” value (SK-MEL-5, PD184352 - 1 uM, ligand 6.25 ng/ml) was 1.02, the “ability of recombinant RTK ligand” value (SK-MEL-5, PD184352 - 1 uM, ligand 25 ng/ml) was 1.10 and the “ability of recombinant RTK ligand” value (SK-MEL-5, PD184352 - 1 uM, ligand 100 ng/ml) was 1.12. For the same substance, the “ability of recombinant RTK ligand” value (SK-MEL-5, PLX4720 - 2 uM, ligand 0.4 ng/ml) was 0.90, the “ability of recombinant RTK ligand” value (SK-MEL-5, PLX4720 - 2 uM, ligand 1.6 ng/ml) was 8.91 and the “ability of recombinant RTK ligand” value (SK-MEL-5, PLX4720 - 2 uM, ligand 6.25 ng/ml) was 0.96. The “ability of recombinant RTK ligand” value (SK-MEL-5, PLX4720 - 2 uM, ligand 25 ng/ml) was 1.00, the “ability of recombinant RTK ligand” value (SK-MEL-5, PLX4720 - 2 uM, ligand 100 ng/ml) was 1.09 and the “ability of recombinant RTK ligand” value (SK-MEL-28, PD184352 - 1 uM, ligand 0.4 ng/ml) was 1.03. The “ability of recombinant RTK ligand” value (SK-MEL-28, PD184352 - 1 uM, ligand 1.6 ng/ml) was 0.94, the “ability of recombinant RTK ligand” value (SK-MEL-28, PD184352 - 1 uM, ligand 6.25 ng/ml) was 1.01 and the “ability of recombinant RTK ligand” value (SK-MEL-28, PD184352 - 1 uM, ligand 25 ng/ml) was 1.06. The “ability of recombinant RTK ligand” value (SK-MEL-28, PD184352 - 1 uM, ligand 100 ng/ml) was 0.99, the “ability of recombinant RTK ligand” value (SK-MEL-28, PLX4720 - 2 uM, ligand 0.4 ng/ml) was 0.92 and the “ability of recombinant RTK ligand” value (SK-MEL-28, PLX4720 - 2 uM, ligand 1.6 ng/ml) was 0.89. For the same substance, the “ability of recombinant RTK ligand” value (SK-MEL-28, PLX4720 - 2 uM, ligand 6.25 ng/ml) was 0.98, the “ability of recombinant RTK ligand” value (SK-MEL-28, PLX4720 - 2 uM, ligand 25 ng/ml) was 0.92 and the “ability of recombinant RTK ligand” value (SK-MEL-28, PLX4720 - 2 uM, ligand 100 ng/ml) was 0.98.
